This is an account of results in US10364263B2, “Cyclic phosphates and cyclic phosphoramidates for the treatment of neurologic disorders” (Retrophin, Inc., priority 2015, dated 2019).

A short description of data set [1]: Stability in human plasma. Format: in vitro ADME. The settings on record: 37° C. The method, boiled down: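 Test compound at 3 μM (0.1% DMSO) was incubated in mouse or human plasma at 37 °C and sampled in duplicate at 0, 10, 20, 30, 40 and 60 min. Reactions were stopped with acetonitrile/formic acid containing internal standard. Remaining parent was measured by UPLC-MS/MS without a calibration curve.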

Data set [2] in a line: Permeability in porcine brain endothelial cell blood-brain barrier model. Type of data set: in vitro ADME. Conditions: pig (endothelial cells), co-cultured with rat astrocytes, pH 7.4, PBECs/As blood-brain barrier model, luminal to basal. The method, boiled down:
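Co-culture of primary porcine brain endothelial cells on Transwell inserts over primary rat astrocytes, with TEER >500 Ω/cm^2 and FITC-dextran integrity control. Compound added apically in HBSS/20 mM Hepes pH 7.4/0.1% BSA and basal amount measured usually after 60 min, by LC-MS/MS, fluorescence or scintillation. Papp in cm/s, corrected for cell-free filter.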

The nature of data set [3]: physchem. The settings on record: buffer, phosphate buffered saline, 10 mM phosphate buffer pH 7.5, 37° C.

The structures appear in SMILES notation. Read-outs that look alike come from different tables or passages of the source.

Consider `COC(=O)CCNC(=O)[C@@H]1OP(=O)(N[C@@H](C)C(=O)OC)OCC1(C)C` (stereo partly drawn) [compound 5, methyl 3-((4R)-2-(((S)-1-methoxy-1-oxopropan-2-yl)amino)-5,5-dimethyl-2-oxido-1,3,2-dioxaphosphinane-4-carboxamido)propanoate], for which, in data set [1] (Diastereoisomer A (upfield shift in 31P NMR), read-out: t1/2, Human Plasma, Diastereoisomer A (converted)), the half-life at 3 µM was more than 1 h. The “t1/2, Human Plasma, Diastereoisomer B” value in data set [1] (Diastereoisomer B, 3 μM) was more than 1 h. Moreover, the Papp A→B at 60 min came to 6.27 ×10⁻⁶ cm/s in data set [2] (Diastereoisomer A, read-out: Papp Diastereoisomer A) and 5.06 ×10⁻⁶ cm/s in data set [2] (Diastereoisomer B, read-out: Papp Diastereoisomer B). The half-life in data set [3] (pH 7.5, t1/2 (h) Diastereoisomer A, Diastereoisomer A = upfield shift in the 31P NMR) is 40 h; in data set [3] (pH 7.5, t1/2 (h) Diastereoisomer B, Diastereoisomer B), 40 h.
